Data taken from the OligoGym collection.
“And” between values parts separate entries of the source, which are not always exact repeats. Identical values can stand only once. After the bases stand the sugars from the 5' end (letter, count) and the backbone: PS all phosphorothioate, else s phosphorothioate and o phosphodiester by linkage. Methylation of C is not given here. e = 2'-O-(2-methoxyethyl) (MOE); k = constrained ethyl (cEt); d = 2'-deoxy (DNA)

target: IRF4; conditions: ASO, MM.1R, 1 µM

Sequence	target mRNA inhibition
CAAGCAGTGATGTCAG (sugars k3 d10 k3, PS)	60% and 51%
CAAGCAGTGATGTCAG (sugars kddddddddddkekek, PS)	35% and 43%
CAAGTGTCTAAAGTCC (sugars k3 d10 k3, PS)	3%
CAAGTGTCTAAAGTCC (sugars kkdddddddddekeke, PS)	23% and 25%
CAATCTTAACCTGGAG (sugars k3 d10 k3, PS)	40%
CACATCAATGTTTTAG (sugars k2 d9 e3 k2, PS)	12% and 11%
CACATCAATGTTTTAG (sugars kdddddddddkekeke, PS)	-2% and 18%
CACATCAATGTTTTAG (sugars kkdddddddddkdkdk, PS)	28% and 37%
CACATCAATGTTTTAG (sugars kkdddddddddkekek, PS)	19% and 34%
CACTATTCGAGAGAAA (sugars k3 d10 k3, PS)	30%
CACTGCCGTGATCTGA (sugars k3 d10 k3, PS)	9%
CAGATTAATAGTAAGT (sugars k3 d10 k3, PS)	-12%
CAGATTTACACCGTTG (sugars k3 d10 k3, PS)	15%

same assay, conditions: ASO, SK-MEL-28, 4 µM

Sequence	target mRNA inhibition
CAAATTAAAGAGCGCA (sugars k3 d10 k3, PS)	57%
CAACTAGCAGGGCACG (sugars k3 d10 k3, PS)	38%
CAAGAACTGCTGTGTG (sugars k3 d10 k3, PS)	-5%
CAAGACAGGTCTCTAC (sugars k3 d10 k3, PS)	34%
CAAGACATAAACCAAG (sugars k3 d10 k3, PS)	51%
CAAGACCTAATCTACA (sugars k3 d10 k3, PS)	12%
CAAGCTTTCATTTGGG (sugars k3 d10 k3, PS)	74%
CAAGGAGGCGGGCCTT (sugars k3 d10 k3, PS)	-2%
CAAGGCTACAGGCACG (sugars k3 d10 k3, PS)	51%
CAATAGTCTAGCTGGG (sugars k3 d10 k3, PS)	63%
CACAGGCGCGGACGCA (sugars k3 d10 k3, PS)	14%
CACATTTGAGAGCTAC (sugars k3 d10 k3, PS)	74%
CACCAAGGTCCAGAGT (sugars k3 d10 k3, PS)	20%
CACCAGGTTAAACAGG (sugars k3 d10 k3, PS)	-8%
CACCATTCAGACAGAT (sugars k3 d10 k3, PS)	-67%
CACCCCTTCTTGTGGA (sugars k3 d10 k3, PS)	40%

Sequence	target mRNA inhibition
CACCGAACACACCAGG (sugars k3 d10 k3, PS)	20%
CACGAAGGGCAGTGCC (sugars k3 d10 k3, PS)	17%
CACGAGGAAGCATAGA (sugars k3 d10 k3, PS)	56%
CACGCAATGGCAAAAG (sugars k3 d10 k3, PS)	19%
CACGGGAATTTCCATT (sugars k3 d10 k3, PS)	71%
CACTAAGTGGGCTCTG (sugars k3 d10 k3, PS)	41%
CACTACCTGCAGCCAA (sugars k3 d10 k3, PS)	31%
CACTATTAAACAGCAC (sugars k3 d10 k3, PS)	19%
CACTCAGCAAGTGTCT (sugars k3 d10 k3, PS)	50%
CACTGAGGCCTTAATG (sugars k3 d10 k3, PS)	34%
CACTGGCATCGAGACG (sugars k3 d10 k3, PS)	61%
CACTGTTAAAGCAGCA (sugars k3 d10 k3, PS)	81%
CAGAAAATATGTAACG (sugars k3 d10 k3, PS)	22%
CAGAAGTACGAGCACA (sugars k3 d10 k3, PS)	47%
CAGATGGCATGCGAAT (sugars k3 d10 k3, PS)	35%
